Ends that are not written are not given here.
Tests used:
[1] = system: antibodies against HCV; test: PEPSCAN analysis of overlapping octameric peptides of the HCV core protein N-terminal region with HCV-seropositive sera; format: binding, human; details: 16 sera assayed by PEPSCAN
From the text: The N-terminal 97 amino acid residues of HCV Core protein SEQ ID NO: 8 was mapped with PEPSCAN analysis. This process involved the serological analysis of sequentially overlapping peptides which spanned the region of interest, to identify epitopic domains. Ninety overlapping octameric peptides were synthesized on polypropylene pin supports according to the manufacturer's instructions (Cambridge Research Biochemicals), such that each peptide overlapped with the preceding sequence by the seven N-terminal residues, and with the subsequent peptide by the seven C-terminal residues. Serum or IgG purified from the serum of individuals confirmed to be seropositive for HCV were used to screen the peptides.
The assay procedure followed was performed basically as described in the manufacturers instruction manual. The time and temperature of the test antibody incubation differed from that prescribed, thereby decreasing the time taken for each assay.
Sera: A total of 16 sera were assayed by PEPSCAN. These consisted of 12 sera from paid U.S. Donors which were identified as being positive for antibodies against HCV in routine screening at the site of donation. The remaining four sera were from patients diagnosed as having non-A non-B hepatitis, and which were subsequently shown to contain antibodies to HCV. Sera were screened either as the crude serum fraction, or as a caprylic acid preparation. Caprylic acid purification of IgG from the sera was performed as described by Stienbuch and Audran (1969) Arch. Biochem. Biophys. 134, 279-284.
Assay: The assay format involves sequentially incubating the various pins in microwell plates containing blocking, test antibody, conjugate, and substrate solutions. The immune complex builds up on the pin with the enzyme labelled conjugate being immobilized on the bound anti-peptide antibody from the test serum. When the pin is then immersed in substrate, the enzyme brings about the colour change which is used to quantify the amount of anti-peptide antibody bound.
Blocking: Pins are immersed in 200 μl of Supercocktail (1% Ovalbumin, 1% bovine serum albumin in 0.15M phosphate buffered saline pH 7.2—0.1% Tween 20) and left to stand at room temperature for 1 hour.
Test antibody: The test antibody is diluted between 1/200 (IgG) and 1/1000 (serum) in supercocktail. The pins are then stood in this solution (175 μl/well) at 37° C. for 1 hour. After this incubation the pins are washed four times in 0.15M phosphate buffered saline pH 7.2—0.05% Tween 20, each at room temperature for 10 minutes.
Conjugate: Rabbit anti-human IgG coupled to horseradish peroxidase is diluted 1/1000 in supercocktail. The peptide bearing pins are then stood in this solution at room temperature for 1 hour. Once again the pins are then washed four times as above.
Substrate: The substrate solution is made up fresh for each assay. To 100 ml of 0.1M phosphate, 0.08M citrate buffer pH 4.0 is dissolved 50 mg of 2,2′-AZINO-bis (3-ethylbenzthiazo-linsulphonic acid (ABTS) and 0.3 μl/ml 30% hydrogen peroxide is added. The pins are immersed in the wells containing substrate solution (150 μl/well) and incubated at room temperature in the dark. Once sufficient colour has developed the reaction is stopped by removing the pins. The plates are then read immediately in a spectrophotometric plate reader at a wavelength of 405 nm. The absorbance values are then plotted against pin number. The epitopic domains are then defined as the continuous sequence of amino acids common to all positive pins in the domain i.e.

[2] = system: antibodies against HCV; test: Replacement Net analysis of the core immunodominant epitope YLLPRR with 12 paid donor human sera; format: binding; details: n = 12 sera; for Frequency of relative signal strength: All: acceptable when signal 80% of the parent sequence or greater; for Frequency of relative signal strength: 2nd-5th / Frequency of relative signal strength: 6th-10th / Frequency of relative signal strength: Below 10th / Frequency of relative signal strength: Highest: rank of replacement residue at that position
Method: The Replacement Net Method was used to sequentially replace each of the constituent amino acid residues in the epitope with each of the other genetically encoded amino acids.
For Replacement Net analysis, a parent sequence is entered into the Epitope Mapping Software provided by Cambridge Research Biochemicals, and a set of replacement peptides is generated. This process was performed for the six amino acid residue immunodominant core epitope of HCV. The peptides were synthesized on polypropylene pins as directed by the manufacturer (CRB). The Assay format was identical to that followed for PEPSCAN above.
The Replacement Net of the core immunodominant epitope sequence Tyr-Leu-Leu-Pro-Arg-Arg (YLLPRR) (SEQ ID NO: 1 and 2) with the 12 paid donor human sera as described above was considered.
For each position within the epitope, the frequency of each replacement residue as an acceptable replacement for the parent sequence is given. Replacement residues were deemed acceptable when the signal of the new peptide was 80% of the parent sequence or greater.
The residue in italics is the parent sequence.

[3] = listed as 2-Leucine L, epitope position 2-Leucine, residue L
[4] = listed as 3-Leucine L, epitope position 3-Leucine, residue L
[5] = listed as 5-Arginine R, epitope position 5-Arginine, residue R
[6] = listed as 6-Arginine R, epitope position 6-Arginine, residue R

YLLPRR [YLLPRR] was tested, and the “Detection of the epitope by sera” value [1] was “detected to a greater or lesser extent by all of the sera tested”, the “Frequency of relative signal strength: All” value ([2]; listed as 1-Tyrosine Y) was 11 and the “Frequency of relative signal strength: All” value [2, 3] was 8. For the same substance, the “Frequency of relative signal strength: All” value [2, 4] was 3, the “Frequency of relative signal strength: All” value ([2]; listed as 4-Proline P) was 5 and the “Frequency of relative signal strength: All” value [2, 5] was 10. For the same substance, the “Frequency of relative signal strength: All” value [2, 6] was 11, the “Frequency of relative signal strength: 2nd-5th” value ([2]; listed as 1-Tyrosine Y) was 3 and the “Frequency of relative signal strength: 6th-10th” value ([2]; listed as 1-Tyrosine Y) was 5. The “Frequency of relative signal strength: Below 10th” value ([2]; listed as 1-Tyrosine Y) was 1, the “Frequency of relative signal strength: Highest” value ([2]; listed as 1-Tyrosine Y) was 2 and the “Frequency of relative signal strength: 2nd-5th” value [2, 3] was 2. For the same substance, the “Frequency of relative signal strength: 6th-10th” value [2, 3] was 3, the “Frequency of relative signal strength: Below 10th” value [2, 3] was 2 and the “Frequency of relative signal strength: Highest” value [2, 3] was 1. The “Frequency of relative signal strength: 2nd-5th” value [2, 4] was 0, the “Frequency of relative signal strength: 6th-10th” value [2, 4] was 1 and the “Frequency of relative signal strength: Below 10th” value [2, 4] was 0. The “Frequency of relative signal strength: Highest” value [2, 4] was 2, the “Frequency of relative signal strength: 2nd-5th” value ([2]; listed as 4-Proline P) was 1 and the “Frequency of relative signal strength: 6th-10th” value ([2]; listed as 4-Proline P) was 1. The “Frequency of relative signal strength: Below 10th” value ([2]; listed as 4-Proline P) was 0, the “Frequency of relative signal strength: Highest” value ([2]; listed as 4-Proline P) was 3 and the “Frequency of relative signal strength: 2nd-5th” value [2, 5] was 2. The “Frequency of relative signal strength: 6th-10th” value [2, 5] was 1, the “Frequency of relative signal strength: Below 10th” value [2, 5] was 7 and the “Frequency of relative signal strength: Highest” value [2, 5] was 0. For the same substance, the “Frequency of relative signal strength: 2nd-5th” value [2, 6] was 1, the “Frequency of relative signal strength: 6th-10th” value [2, 6] was 5 and the “Frequency of relative signal strength: Below 10th” value [2, 6] was 3. The “Frequency of relative signal strength: Highest” value [2, 6] was 2.
